Assay results taken from patent US8580812B2, “Heteroaryl amide analogues as P2X7 antagonists” (H. Lundbeck A/S, priority 2007, dated 2013).

Biological target: T1, P2X7 (Homo sapiens, UniProt Q99572)
T1 construct: host or cells: SH-SY5Y
T1 sequence (Q99572 1-595): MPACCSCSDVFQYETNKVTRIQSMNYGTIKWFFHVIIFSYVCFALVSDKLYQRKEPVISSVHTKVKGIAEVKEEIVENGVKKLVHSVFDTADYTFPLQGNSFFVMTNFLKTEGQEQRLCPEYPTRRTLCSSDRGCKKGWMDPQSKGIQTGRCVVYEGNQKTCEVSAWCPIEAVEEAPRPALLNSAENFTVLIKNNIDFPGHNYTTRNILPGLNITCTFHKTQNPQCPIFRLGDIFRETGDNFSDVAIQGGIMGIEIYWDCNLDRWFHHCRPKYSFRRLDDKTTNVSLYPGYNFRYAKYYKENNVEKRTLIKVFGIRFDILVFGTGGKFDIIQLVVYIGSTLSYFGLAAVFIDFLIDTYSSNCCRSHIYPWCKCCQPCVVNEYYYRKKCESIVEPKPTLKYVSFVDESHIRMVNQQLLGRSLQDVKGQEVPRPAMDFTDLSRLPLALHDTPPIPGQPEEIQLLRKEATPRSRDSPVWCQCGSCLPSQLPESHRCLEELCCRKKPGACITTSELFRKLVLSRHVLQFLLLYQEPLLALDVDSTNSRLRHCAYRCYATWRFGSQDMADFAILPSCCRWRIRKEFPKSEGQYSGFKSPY
Experiment: High Throughput P2X7 Calcium Mobilization Assay (Example 4A), antagonist activity
Type: cell-based
Conditions: SH-SY5Y cells, 50% decrease in fluorescence response of cells exposed to 80 μM BzATP
Experimental: A. High Throughput P2X7 Calcium Mobilization Assay
SH-SY5Y cells, ATCC Number CRL-2266, (American Type Culture Collection, Manassas, Va.) are cultured under DMEM/High medium supplemented with 10% FBS, and 10 mM HEPES (Invitrogen Corp., Carlsbad, Calif.) in 5% CO2 and at 37° C. One day prior to the experiment, cells are plated at a density of 100,000 cells/well in a 96 well black/clear TC plate (Corning® Costar®, Sigma-Aldrich Co., St. Louis, Mo.). At the beginning of the experiment, the culture medium is removed and cells are incubated with 50 μL of 2.3 μM Fluo-4 AM dye (Invitrogen Corp.) in the assay solution (5 mM KCl, 9.6 mM NaH2PO4.H2O, 25 mM HEPES, 280 mM Sucrose, 5 mM Glucose, and 0.5 mM CaCl2; pH is adjusted to 7.4 with NaOH) for an hour at 37° C. After one hour dye incubation, wells are rinsed once with 50 μL assay solution, and are then incubated for an hour at room temperature with 100 μL assay solution containing the test compound. The final concentration of test compound generally ranges from 1 to 2500 nM; for positive control cells, no test compound is added. After the one hour incubation, plates are transferred to a FLIPR^TETRA instrument (Molecular Devices, Sunnyvale, Calif.) for calcium mobilization analysis.
For determination of antagonist activity, 50 μL of P2X7 agonist (2′(3′)-O-(4-benzoyl-benzoyl)adenosine 5′-triphosephate (BzATP; Sigma-Aldrich) in the assay solution is transferred using the FLIPR into the plate, such that the final agonist concentration is 80 μM (about EC50). In negative control cells, 50 μL of assay solution without agonist is added at this stage. The peak fluorescence signal over a 2 minute period is then measured.
First, the average maximum relative fluorescent unit (RFU) response from the negative control wells (no agonist) is subtracted from the maximum response detected for each of the other experimental wells. Second, average maximum RFU response is calculated for the positive control wells (agonist wells). Then, percent inhibition for each compound tested is calculated using the equation: Percent Inhibition=100−100×(Peak Signal in Test Cells/Peak Signal in Control Cells) The % inhibition data is plotted as a function of test compound concentration and test compound IC50 is determined using, for example, KALEIDAGRAPH software (Synergy Software, Reading, Pa.) best fit of the data to the equation: y=m1*(1/(1+(m2/m0)^m3)) where y is the percent inhibition, m0 is […], m1 is the maximum RFU, m2 corresponds to the test compound IC50 (the concentration required to provide a 50% decrease, relative to the response observed in the presence of agonist and without antagonist) and m3 is the Hill coefficient.

SMILES | IC50
N[C@@H]1CCN(C(=O)c2cc3c(C(=O)NCC4(c5cccnc5)CCCCC4)cccn3n2)C1 [Compound 57, 2-{[(3R)-3-aminopyrrolidin-1-yl]carbonyl}-N-[(1-pyridin-3-ylcyclohexyl)methyl] pyrazolo[1,5-a]pyridine-4-carboxamide] | ≤ 2000 nM
COCCCNC(=O)c1cc2c(C(=O)NCC34CC5CC(CC(C5)C3)C4)cccn2n1 [Compound 38, 4-N-(adamantan-1-ylmethyl)-2-N-(3-methoxypropyl)pyrazolo [1,5-a]pyridine-2,4-dicarboxamide] | ≤ 2000 nM
O=C(Cc1cc2c(C(=O)NCC34CC5CC(CC(C5)C3)C4)cccn2n1)NCC(F)(F)F [Compound 61, N-(adamantan-1-ylmethyl)-2-{2-oxo-2-[(2,2,2-trifluoroethyl)amino]ethyl}pyrazolo[1,5-a]pyridine-4-carboxamide] | ≤ 2000 nM
CC(CC(=O)O)c1cc2c(C(=O)NCC34CC5CC(CC(C5)C3)C4)cccn2n1 (stereo not shown) [Compound 105, 3-{4-[(adamantan-1-ylmethyl)carbamoyl]pyrazolo[1,5-a]pyridin-2-yl}butanoic acid] | ≤ 2000 nM
CN[C@@H]1CCN(C(=O)c2cc3c(C(=O)NCC45CC6CC(CC(C6)C4)C5)cccn3n2)C1 [Compound 46, N-(adamantan-1-ylmethyl)-2-{[(3R)-3-(methylamino)pyrrolidin-1-yl]carbonyl}pyrazolo [1,5-a]pyridine-4-carboxamide] | ≤ 2000 nM
O=C(O)CC(Cc1ccccc1)c1cc2c(C(=O)NCC34CC5CC(CC(C5)C3)C4)cccn2n1 (stereo not shown) [Compound 107, 3-{4-[(adamantan-1-ylmethyl)carbamoyl]pyrazolo[1,5-a]pyridin-2-yl}-4-phenylbutanoic acid] | ≤ 2000 nM
N[C@@H]1CCCN(C(=O)c2cc3c(C(=O)NCC45CC6CC(CC(C6)C4)C5)cccn3n2)C1 [Compound 17, N-(adamantan-1-ylmethyl)-2-{[(3R)-3-aminopiperidin-1-yl]carbonyl}pyrazolo [1,5-a]pyridine-4-carboxamide] | ≤ 2000 nM
CN(Cc1cnccn1)Cc1cc2c(C(=O)NCC34CC5CC(CC(C5)C3)C4)cccn2n1 [Compound 55, N-(adamantan-1-ylmethyl)-2-{[methyl(pyrazin-2-ylmethyl)amino]methyl} pyrazolo[1,5-a]pyridine-4-carboxamide] | ≤ 2000 nM
O=C(NCC1(c2ccc(C(F)(F)F)cc2)CCCCC1)c1cccn2nc(C(=O)N3CCOCC3)cc12 [Compound 94, 2-(morpholin-4-ylcarbonyl)-N-({1-[4-(trifluoromethyl)phenyl]cyclohexyl}methyl) pyrazolo[1,5-a]pyridine-4-carboxamide] | ≤ 2000 nM
O=C(NCC12CC3CC(CC(C3)C1)C2)c1cccn2nc(C(=O)N3CCOCC3)cc12 [Compound 22, N-(adamantan-1-ylmethyl)-2-(morpholin-4-ylcarbonyl)pyrazolo [1,5-a]pyridine-4-carboxamide] | ≤ 2000 nM
O=C(NCC(F)(F)F)c1cc2c(C(=O)NCC34CC5CC(CC(C5)C3)C4)cccn2n1 [Compound 64, 4-N-(adamantan-1-ylmethyl)-2-N-(2,2,2-trifluoroethyl)pyrazolo [1,5-a]pyridine-2,4-dicarboxamide] | ≤ 2000 nM
O=C(Cc1cc2c(C(=O)NCC34CC5CC(CC(C5)C3)C4)cccn2n1)NCCF [Compound 59, N-(adamantan-1-ylmethyl)-2-{2-[(2-fluoroethyl)amino]-2-oxoethyl}pyrazolo[1,5-a]pyridine-4-carboxamide] | ≤ 2000 nM

Results, then the molecule that gave them:

IC50 | SMILES
≤ 2000 nM | CN(Cc1ccc(F)cc1)C(=O)c1cc2c(C(=O)NCC34CC5CC(CC(C5)C3)C4)cccn2n1 [Compound 67, 4-N-(adamantan-1-ylmethyl)-2-N-(4-fluorobenzyl)-2-N-methylpyrazolo[1,5-a]pyridine-2,4-dicarboxamide]
≤ 2000 nM | CC(C)CC(CNC(=O)c1cccn2nc(C(=O)N3CC[C@@H](N)C3)cc12)c1ccccc1 (stereo partly drawn) [Compound 45, 2-{[(3R)-3-aminopyrrolidin-1-yl]carbonyl}-N-(4-methyl-2-phenylpentyl)pyrazolo [1,5-a]pyridine-4-carboxamide]
≤ 2000 nM | CN(Cc1cnccn1)C(=O)c1cc2c(C(=O)NCC34CC5CC(CC(C5)C3)C4)cccn2n1 [Compound 48, 4-N-(adamantan-1-ylmethyl)-2-N-methyl-2-N-(pyrazin-2-ylmethyl)pyrazolo[1,5-a]pyridine-2,4-dicarboxamide]
≤ 2000 nM | COCCN(C)C(=O)c1cc2c(C(=O)NCC34CC5CC(CC(C5)C3)C4)cccn2n1 [Compound 18, 4-N-(adamantan-1-ylmethyl)-2-N-(2-methoxyethyl)-2-N-methylpyrazolo[1,5-a]pyridine-2,4-dicarboxamide]
≤ 2000 nM | CC(C)CC(CNC(=O)c1cccn2nc(C(=O)N3CC[C@@H](N)C3)cc12)c1ccc(C(F)(F)F)cc1 (stereo partly drawn) [Compound 80, 2-{[(3R)-3-aminopyrrolidin-1-yl]carbonyl}-N-{4-methyl-2-[4-(trifluoromethyl)phenyl]pentyl}pyrazolo[1,5-a]pyridine-4-carboxamide]
≤ 2000 nM | CC(C)CC(CNC(=O)c1cccn2nc(C(=O)N3CCOC(C)(C)C3)cc12)c1ccc(C(F)(F)F)cc1 (stereo not shown) [Compound 101, 2-[(2,2-dimethylmorpholin-4-yl)carbonyl]-N-{4-methyl-2-[4-(trifluoromethyl)phenyl]pentyl}pyrazolo[1,5-a]pyridine-4-carboxamide]
≤ 2000 nM | CN(Cc1cccnc1)C(=O)c1cc2c(C(=O)NCC34CC5CC(CC(C5)C3)C4)cccn2n1 [Compound 21, 4-N-(adamantan-1-ylmethyl)-2-N-methyl-2-N-(pyridin-3-ylmethyl)pyrazolo[1,5-a]pyridine-2,4-dicarboxamide]
≤ 2000 nM | CN(CCF)C(=O)c1cc2c(C(=O)NCC34CC5CC(CC(C5)C3)C4)cccn2n1 [Compound 74, 4-N-(adamantan-1-ylmethyl)-2-N-(2-fluoroethyl)-2-N-methylpyrazolo[1,5-a]pyridine-2,4-dicarboxamide]
≤ 2000 nM | CC(C)CC(CNC(=O)c1cccn2nc(C(=O)N(C)CCF)cc12)c1ccc(Cl)cc1 (stereo not shown) [Compound 92, Pyrazolo[1,5-a]pyridine-2,4-dicarboxylic acid 4-{[2-(4-chloro-phenyl)-4-methyl-pentyl]-amide} 2-[(2-fluoro-ethyl)-methyl-amide]]
≤ 2000 nM | CCOC(=O)CN(C)C(=O)c1cc2c(C(=O)NCC34CC5CC(CC(C5)C3)C4)cccn2n1 [Compound 23, ethyl N-({4-[(adamantan-1-ylmethyl)carbamoyl]pyrazolo[1,5-a]pyridin-2-yl}carbonyl)-N-methylglycinate]
≤ 2000 nM | N[C@@H]1CCN(C(=O)c2cc3c(C(=O)NCC(CC4CCCCC4)c4ccccc4)cccn3n2)C1 (stereo partly drawn) [Compound 72, 2-{[(3R)-3-aminopyrrolidin-1-yl]carbonyl}-N-(3-cyclohexyl-2-phenylpropyl)pyrazolo [1,5-a]pyridine-4-carboxamide]
≤ 2000 nM | CC(C)CC(CNC(=O)c1cccn2nc(C(=O)N3C[C@@H](C)O[C@@H](C)C3)cc12)c1ccc(C(F)(F)F)cc1 (single isomer, unassigned) [Compound 100]
≤ 2000 nM | O=C(NCC1(c2ccc(Cl)cc2)CCCCC1)c1cccn2nc(C(=O)N3CCOCC3)cc12 [Compound 84, N-{[1-(4-chlorophenyl)cyclohex-yl]methyl}-2-(morpholin-4-ylcarbonyl)pyrazolo [1,5-a]pyridine-4-carboxamide]
